Experimental data taken from patent US20140031217A1, “HERBICIDAL COMPOSITIONS COMPRISING 4-AMINO-3-CHLORO-5-FLUORO-6-(4-CHLORO-2-FLUORO-3-METHOXYPHENYL)PYRIDINE-2-CARBOXYLIC ACID OR A DERIVATIVE THEREOF AND AUXIN TRANSPORT INHIBITORS” (DOW AGROSCIENCES LLC, priority 2012, published 2014).

Assays:
[1] = system: SCPMA; experiment: In-water applied (paddy) greenhouse weed control, SCPMA; assay type: in vivo
Description: Weed seeds or nutlets of the desired test plant species were planted in puddled soil (mud) prepared by mixing a shredded, non-sterilized mineral soil (50.5 percent silt, 25.5 percent clay, and 24 percent sand, with a pH of about 7.6 and an organic matter content of about 2.9 percent) and water at a 1:1 volumetric ratio. The prepared mud was dispensed in 365 mL aliquots into 16-ounce (oz.) non-perforated plastic pots with a surface area of 86.59 square centimeters (cm^2) leaving a headspace of 3 centimeters (cm) in each pot. Mud was allowed to dry overnight prior to planting or transplanting. Rice seeds were planted in Sun Gro MetroMix® 306 planting mixture, which typically has a pH of 6.0 to 6.8 and an organic matter content of about 30 percent, in plastic plug trays. Seedlings at the second or third leaf stage of growth were transplanted into 840 mL of mud contained in 32-oz. non-perforated plastic pots with a surface area of 86.59 cm^2 4 days prior to herbicide application. The paddy was created by filling the headspace of the pots with 2.5 to 3 cm of water. When required to ensure good germination and healthy plants, a fungicide treatment and/or other chemical or physical treatment was applied. The plants were grown for 4-22 days in a greenhouse with an approximate 14 h photoperiod which was maintained at about 29′C during the day and 26° C. during the night. Nutrients were added as Osmocote® (19:6:12, N:P:K+minor nutrients) at 2 g per 16-oz. pot and 4 g per 960-mL 32-oz. pot. Water was added on a regular basis to maintain the paddy flood, and supplemental lighting was provided with overhead metal halide 1000-Watt lamps as necessary. The plants were employed for testing when they reached the second or third true leaf stage.
Treatments consisted of the acid or esters of 4-amino-3-chloro-5-fluoro-6-(4-chloro-2-fluoro-3-methoxy-phenyl)pyridine-2-carboxylic acid (compound A) each formulated as an SC and various herbicidal components alone and in combination. Forms of compound A were applied on an acid equivalent basis.
(§1) Other herbicidal components were applied on an active ingredient basis and included auxin transport inhibiting (ATI) herbicides chlorflurenol-methyl (technical material), chlorflurenol (technical material), diflufenzopyr (technical material), dilfufenzopyr sodium (technical material), flurenol-methyl (technical material,) and naptalam (technical material).
Treatment requirements for each compound or herbicidal component were calculated based upon the rates being tested, the concentration of active ingredient or acid equivalent in the formulation, an application volume of 2 mL per component per pot, and an application area of 86.59 cm^2 per pot.
For formulated compounds, a measured amount was placed in an individual 100 or 200 mL glass vial and was dissolved in a volume of 1.25% (v/v) Agri-Dex® crop oil concentrate to obtain application solutions.
For technical grade compounds, a weighed amount was placed in an individual 100 to 200 mL glass vial and was dissolved in a volume of acetone to obtain concentrated stock solutions. […] The concentrated stock solutions obtained were diluted with an equivalent volume of an aqueous mixture containing 2.5% (v/v) crop oil concentrate so that the final application solutions contained 1.25% (v/v) crop oil concentrate.
Applications were made by injecting with a pipetter appropriate amounts of the application solutions, individually and sequentially, into the aqueous layer of the paddy. Control plants were treated in the same manner with the solvent blank. Applications were made so that all treated plant material received the same concentrations of acetone and crop oil concentrate.
The treated plants and control plants were placed in a greenhouse as described above and water was added as needed to maintain a paddy flood. […]

[2] = system: CYPIR; experiment: Postemergence foliar-applied greenhouse weed control, CYPIR; assay type: in vivo, Cyperus iria L.
Text: Seeds or nutlets of the desired test plant species were planted in a soil matrix prepared by mixing a loam or sandy loam soil (e.g., 28.6 percent silt, 18.8 percent clay, and 52.6 percent sand, with a pH of about 5.8 and an organic matter content of about 1.8 percent) and calcareous grit in an 80 to 20 ratio. The soil matrix was contained in plastic pots with a volume of 1 quart and a surface area of 83.6 square centimeters (cm^2). When required to ensure good germination and healthy plants, a fungicide treatment and/or other chemical or physical treatment was applied. The plants were grown for 8-22 days in a greenhouse with an approximate 14 h photoperiod which was maintained at about 29° C. during the day and 26° C. during the night. Nutrients (Peters Excel® 15-5-15 5-Ca 2-Mg and iron chelate) were applied in the irrigation solution as needed and water was added on a regular basis. Supplemental lighting was provided with overhead metal halide 1000-Watt lamps as necessary. The plants were employed for testing when they reached the first through fourth true leaf stage.
Treatments consisted of the acid or esters of 4-amino-3-chloro-5-fluoro-6-(4-chloro-2-fluoro-3-methoxy-phenyl) pyridine-2-carboxylic acid (Compound A), each formulated as an SC (suspension concentrate), and various herbicidal components alone and in combination. Forms of compound A were applied on an acid equivalent basis.
as §1, with “chlorflurenol” for “chlorflurenol-methyl”, “chlorflurenol-methyl” for “chlorflurenol”, “diflufenzopyr” for “dilfufenzopyr”, “material)” for “material,)”
Treatment requirements were calculated based upon the rates being tested, the concentration of active ingredient or acid equivalent in the formulation, and a 12 mL application volume at a rate of 187 L/ha.
For treatments comprised of formulated and technical compounds, weighed amounts of the technical materials were placed individually in 25 mL glass vials and dissolved in a volume of 97:3 v/v acetone/DMSO to obtain 12× stock solutions, and measured amounts of the formulated compounds were placed individually in 25 mL glass vials and diluted in a volume of 1.5% (v/v) crop oil concentrate or water to obtain 12× stock solutions. […] Application solutions were prepared by adding an appropriate amount of each stock solution (e.g., 1 mL) and diluted to the appropriate final concentrations with the addition of an appropriate amount of an aqueous mixture of 1.5% (v/v) crop oil concentrate so that the final spray solutions contained 1.25% (v/v) crop oil concentrate. When required, additional water and/or 97:3 v/v acetone/DMSO was added to individual application solutions so that the final acetone and DMSO concentrations of the application solutions being compared were 8.1% and 0.25%, respectively.
All stock solutions and applications solutions were visually inspected for compound compatibility prior to application. Spray solutions were applied to the plant material with an overhead Mandel track sprayer equipped with an 8002E nozzle calibrated to deliver 187 L/ha over an application area of 0.503 m^2 at a spray height of 18 to 20 inches (46 to 50 cm) above average plant canopy height. Control plants were sprayed in the same manner with the solvent blank.
The treated plants and control plants were placed in a greenhouse as described above and watered by sub-irrigation to prevent wash-off of the test compounds. After approximately 3 weeks, the condition of the test plants as compared with that of the untreated plants was determined visually and scored on a scale of 0 to 100 percent where 0 corresponds to no injury or growth inhibition and 100 corresponds to complete kill. […]

COc1c(Cl)ccc(-c2nc(C(=O)O)c(Cl)c(N)c2F)c1F [Compound A Acid, 4-amino-3-chloro-6-(4-chloro-2-fluoro-3-methoxyphenyl)-5-fluoropyridine-2-carboxylic acid]
Visual Weed Control (%) Obs ([1]; 20 DAA, 8.75 gae/ha): 0%
Visual Weed Control (%) Obs ([1]; 20 DAA, 17.5 gae/ha): 0%
Visual Weed Control (%) Obs ([1]; 20 DAA, 35 gae/ha): 30%
Visual Weed Control (%) Obs ([1]; 22 DAA, 8.75 gae/ha): 0%
Visual Weed Control (%) Obs ([1]; 22 DAA, 17.5 gae/ha): 0%
Visual Weed Control (%) Obs ([1]; 22 DAA, 35 gae/ha): 0%
Visual Weed Control (%) Obs ([2]; 20 DAA, 4.38 gae/ha): 30%

COc1c(Cl)ccc(-c2nc(C(=O)OCc3ccccc3)c(Cl)c(N)c2F)c1F [Compound A Benzyl Ester]
Visual Weed Control (%) Obs ([1]; 20 DAA, 4.38 gae/ha): 0%
Visual Weed Control (%) Obs ([1]; 20 DAA, 8.75 gae/ha): 0%
Visual Weed Control (%) Obs ([1]; 20 DAA, 17.5 gae/ha): 0%
Visual Weed Control (%) Obs ([1]; 22 DAA, 8.75 gae/ha): 0%
Visual Weed Control (%) Obs ([1]; 22 DAA, 17.5 gae/ha): 0%
Visual Weed Control (%) Obs ([2]; 20 DAA, 4.38 gae/ha): 70%
Visual Weed Control (%) Obs ([2]; 22 DAA, 8 gae/ha): 30%
